According to PubChem BioAssay AID248 (DTP/NCI, 2004):
Where “and” joins values, the source holds several entries; their conditions need not be identical. Equal entries are not always repeated. Toxic doses and inconclusive results are not listed. Cut-off read from the data, not from the text of the source: active = T/C of 150% or more; inactive = T/C below 125%.

Test system: L1210 leukemia ip in BDF1 mice, survival T/C
Assay: NCI In Vivo Anticancer Drug Screen. Data for tumor model L1210 Leukemia (intraperitoneal) in B6D2F1 (BDF1) mice
Conditions: endpoint: mean survival time, higher = longer survival
In short: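 Ratio derived from survival: compound-dosed mice over vehicle-dosed mice, all bearing a transplantable tumor.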

[1] = dose: 100.0 mg/kg/injection, schedule: Q04DX003 (ip), vehicle: saline with Tween-80
[2] = dose: 200.0 mg/kg/injection, schedule: Q04DX003 (ip), vehicle: saline with Tween-80
[3] = dose: 400.0 mg/kg/injection, schedule: Q04DX003 (ip), vehicle: saline with Tween-80
[4] = dose: 100.0 mg/kg/injection, schedule: Q01DX001 (ip), vehicle: saline
[5] = dose: 200.0 mg/kg/injection, schedule: Q01DX001 (ip), vehicle: saline
[6] = dose: 100.0 mg/kg/injection, schedule: Q01DX009 (ip), vehicle: saline with Tween-80
[7] = dose: 200.0 mg/kg/injection, schedule: Q01DX009 (ip), vehicle: saline with Tween-80
[8] = dose: 400.0 mg/kg/injection, schedule: Q01DX009 (ip), vehicle: saline with Tween-80
[9] = dose: 25.0 mg/kg/injection, schedule: Q04DX002 (ip), vehicle: Klucel (hydroxypropylcellulose) (HPC)
[10] = dose: 50.0 mg/kg/injection, schedule: Q04DX002 (ip), vehicle: Klucel (hydroxypropylcellulose) (HPC)
[11] = dose: 100.0 mg/kg/injection, schedule: Q04DX002 (ip), vehicle: Klucel (hydroxypropylcellulose) (HPC)
[12] = dose: 200.0 mg/kg/injection, schedule: Q04DX002 (ip), vehicle: Klucel (hydroxypropylcellulose) (HPC)

Measured: T/C

CC(C)=CCC/C(C)=C/CN1C(=O)C=CC1=O
inactive: dose: 12.5 mg/kg/injection, schedule: Q01DX009 (ip), vehicle: water 91 % of control | dose: 25.0 mg/kg/injection, schedule: Q01DX009 (ip), vehicle: water 86 % of control | dose: 25.0 mg/kg/injection, schedule: Q04DX003 (ip), vehicle: water 97 % of control | dose: 50.0 mg/kg/injection, schedule: Q04DX003 (ip), vehicle: water 98 % of control | dose: 100.0 mg/kg/injection, schedule: Q04DX003 (ip), vehicle: water 104 % of control

CCCNCCCN
inactive: dose: 25.0 mg/kg/injection, schedule: Q01DX009 (ip), vehicle: saline 100 % of control | dose: 25.0 mg/kg/injection, schedule: Q04DX003 (ip), vehicle: saline 93 % of control | dose: 50.0 mg/kg/injection, schedule: Q01DX009 (ip), vehicle: saline 105 % of control | dose: 50.0 mg/kg/injection, schedule: Q04DX003 (ip), vehicle: saline 101 % of control | dose: 100.0 mg/kg/injection, schedule: Q04DX003 (ip), vehicle: saline 94 % of control and 102 % of control | dose: 200.0 mg/kg/injection, schedule: Q04DX003 (ip), vehicle: saline 88 % of control

O=C(O)/C=C/c1ccc(O)cc1
inactive: dose: 75.0 mg/kg/injection, schedule: Q04DX003 (ip), vehicle: Klucel (hydroxypropylcellulose) (HPC) 97 % of control | dose: 150.0 mg/kg/injection, schedule: Q04DX003 (ip), vehicle: Klucel (hydroxypropylcellulose) (HPC) 101 % of control | dose: 300.0 mg/kg/injection, schedule: Q04DX003 (ip), vehicle: Klucel (hydroxypropylcellulose) (HPC) 109 % of control

COC(=O)c1cc(S(=O)(=O)c2cc(C(=O)OC)c(O)cc2OC)c(OC)cc1O
inactive: dose: 100.0 mg/kg/injection, schedule: Q04DX002 (ip), vehicle: carboxymethylcellulose (CMC) 95 % of control | dose: 200.0 mg/kg/injection, schedule: Q04DX002 (ip), vehicle: carboxymethylcellulose (CMC) 95 % of control | dose: 400.0 mg/kg/injection, schedule: Q04DX002 (ip), vehicle: carboxymethylcellulose (CMC) 98 % of control

CCN(c1ccc2c(c1)C(=O)c1ccccc1-2)S(=O)(=O)c1ccc(C)cc1
inactive: dose: 100.0 mg/kg/injection, schedule: Q04DX003 (ip), vehicle: Klucel (hydroxypropylcellulose) (HPC) 96 % of control | dose: 200.0 mg/kg/injection, schedule: Q04DX003 (ip), vehicle: Klucel (hydroxypropylcellulose) (HPC) 98 % of control | dose: 400.0 mg/kg/injection, schedule: Q04DX003 (ip), vehicle: Klucel (hydroxypropylcellulose) (HPC) 98 % of control

O=C(NCCc1nc(-c2nc(C(=O)O)cs2)cs1)c1ccccc1
inactive: [1] 103 % of control | [2] 94 % of control | [3] 92 % of control

O=C(O)CC1Sc2ccccc2NC1=O (stereo unspecified)
inactive: dose: 100.0 mg/kg/injection, schedule: Q01DX001 (ip), vehicle: Klucel (hydroxypropylcellulose) (HPC) 105 % of control | dose: 200.0 mg/kg/injection, schedule: Q01DX001 (ip), vehicle: Klucel (hydroxypropylcellulose) (HPC) 94 % of control | dose: 400.0 mg/kg/injection, schedule: Q01DX001 (ip), vehicle: Klucel (hydroxypropylcellulose) (HPC) 105 % of control

CCOC(=O)C(N)CCl (stereo unspecified)
inactive: dose: 6.25 mg/kg/injection, schedule: Q01DX001 (ip), vehicle: saline 100 % of control | dose: 12.5 mg/kg/injection, schedule: Q01DX001 (ip), vehicle: saline 101 % of control | dose: 25.0 mg/kg/injection, schedule: Q01DX001 (ip), vehicle: saline 101 % of control | dose: 50.0 mg/kg/injection, schedule: Q01DX001 (ip), vehicle: saline 99 % of control | [4] 97 % of control | [5] 95 % of control

Cc1ccc(C(=O)/C=C\c2ccccc2)cc1
inactive: [6] 110 % of control | [1] 103 % of control | [7] 97 % of control | [2] 98 % of control | [8] 97 % of control | [3] 92 % of control

N#Cc1ccc(OCCCCCOc2ccc(C#N)cc2I)c(I)c1
inactive: [9] 100 % of control | [10] 100 % of control | [11] 95 % of control and 97 % of control | [12] 89 % of control | dose: 400.0 mg/kg/injection, schedule: Q04DX002 (ip), vehicle: Klucel (hydroxypropylcellulose) (HPC) 94 % of control

CC1CC2CCCC(O)=C2C(=O)O1 (stereo unspecified)
inactive: [4] 102 % of control | [5] 102 % of control | dose: 400.0 mg/kg/injection, schedule: Q01DX001 (ip), vehicle: saline 105 % of control

CN1C=CC(=Cc2ccccc2)C=C1
inactive: dose: 12.5 mg/kg/injection, schedule: Q04DX002 (ip), vehicle: Klucel (hydroxypropylcellulose) (HPC) 90 % of control | [9] 107 % of control | [10] 107 % of control

O=C(Nc1ccc([N+](=O)[O-])cc1Cl)c1cc(Cl)ccc1O
inactive: dose: 50.0 mg/kg/injection, schedule: Q01DX009 (ip), vehicle: Klucel (hydroxypropylcellulose) (HPC) 101 % of control | dose: 100.0 mg/kg/injection, schedule: Q01DX009 (ip), vehicle: Klucel (hydroxypropylcellulose) (HPC) 104 % of control | [11] 91 % of control | dose: 200.0 mg/kg/injection, schedule: Q01DX009 (ip), vehicle: Klucel (hydroxypropylcellulose) (HPC) 101 % of control | [12] 94 % of control

COc1ccc(OC)c(NC(=O)c2ccc(Cl)cc2)c1
inactive: dose: 100.0 mg/kg/injection, schedule: Q01DX001 (ip), vehicle: saline with Tween-80 101 % of control | [6] 97 % of control | dose: 100.0 mg/kg/injection, schedule: Q04DX002 (ip), vehicle: saline with Tween-80 104 % of control and 110 % of control | [1] 94 % of control | dose: 200.0 mg/kg/injection, schedule: Q01DX001 (ip), vehicle: saline with Tween-80 97 % of control | [7] 95 % of control and 97 % of control | dose: 200.0 mg/kg/injection, schedule: Q04DX002 (ip), vehicle: saline with Tween-80 104 % of control and 92 % of control | [2] 97 % of control | dose: 400.0 mg/kg/injection, schedule: Q01DX001 (ip), vehicle: saline with Tween-80 95 % of control | [8] 102 % of control and 124 % of control | dose: 400.0 mg/kg/injection, schedule: Q04DX002 (ip), vehicle: saline with Tween-80 94 % of control and 108 % of control | [3] 95 % of control

Oc1cc(O)c(CN2CCOCC2)c(O)c1CN1CCOCC1
inactive: dose: 100.0 mg/kg/injection, schedule: Q01DX001 (ip), vehicle: other 98 % of control | dose: 200.0 mg/kg/injection, schedule: Q01DX001 (ip), vehicle: other 100 % of control | dose: 400.0 mg/kg/injection, schedule: Q01DX001 (ip), vehicle: other 95 % of control

c1cc[c]([Pb]([c]2ccccc2)([c]2ccccc2)[n]2ccnc2)cc1
inactive: dose: 5.0 mg/kg/injection, schedule: Q01DX001 (ip), vehicle: other 106 % of control | dose: 10.0 mg/kg/injection, schedule: Q01DX001 (ip), vehicle: other 98 % of control

COB1OB(OC)OB(OC)O1
inactive: dose: 500.0 mg/kg/injection, schedule: Q01DX Z (ip), vehicle: other 94 % of control | dose: 750.0 mg/kg/injection, schedule: Q01DX Z (ip), vehicle: other 104 % of control | dose: 1000.0 mg/kg/injection, schedule: Q01DX001 (ip), vehicle: carboxymethylcellulose (CMC) 109 % of control | dose: 1000.0 mg/kg/injection, schedule: Q01DX Z (ip), vehicle: other 107 % of control | dose: 1500.0 mg/kg/injection, schedule: Q01DX Z (ip), vehicle: other 118 % of control | dose: 2000.0 mg/kg/injection, schedule: Q01DX001 (ip), vehicle: carboxymethylcellulose (CMC) 113 % of control | dose: 3000.0 mg/kg/injection, schedule: Q01DX001 (ip), vehicle: carboxymethylcellulose (CMC) 113 % of control

Cc1cccc(NC(=S)N(CCC#N)C2CCCCC2)c1
inactive: dose: 100.0 mg/kg/injection, schedule: Q01DX001 (ip), vehicle: carboxymethylcellulose (CMC) 95 % of control | dose: 200.0 mg/kg/injection, schedule: Q01DX001 (ip), vehicle: carboxymethylcellulose (CMC) 90 % of control | dose: 400.0 mg/kg/injection, schedule: Q01DX001 (ip), vehicle: carboxymethylcellulose (CMC) 101 % of control
